In publication PMC6983066, “Real-Time Optical Detection of Isoleucine in Living Cells through a Genetically-Encoded Nanosensor” (Sensors (Basel, Switzerland), 2019):

Key:
[1] = system: T1, GEII nanosensor (ECFP-LivJ-Venus); test: Specificity analysis of purified GEII nanosensor with amino acids and metal ions (Venus/ECFP FRET ratio, microplate); assay type: biochemical, E. coli; details: 1 and 10 mM amino acid, purified sensor
T1 construct: His-tag (from pRSET-B); made in house; host or cells: E. coli BL21 (DE3)
Method: The FRET ratio analysis was performed in 96-well microplate reader using the excitation filter/slits (430/20 nm) and emission filters/slits for ECFP (485/20 nm), and Venus (535/25 nm) respectively. Furthermore, the sensitivity of sensor protein was tested against 10 mM of different metals ions present in the human body i.e., NaCl, CaCl2, MgCl2, and KCl.

LivJ = LivJ binding protein; no reference given; cited from earlier work
E. coli BL21(DE3) cells = test: Monitoring of isoleucine in living bacterial cells expressing GEII; assay type: cell-based; details: 10 mM amino acid, 45 min
Method: For monitoring of isoleucine in bacterial cells, the E. coli BL21(DE3) containing pRSET-B-GEII were incubated for 48 h at 21 °C. For appropriate protein folding of nanosensor protein, the culture was stored in 4 °C overnight. The bacterial cells were centrifuged and the resultant pellet of the bacterial cells was resuspended in MOPS buffer (20 mM). Twenty microliter 10 mM isoleucine was added to 180 µL resuspended bacterial cell in the wells of microplate. The ratio of fluorescence emission intensities of Venus/ECFP was recorded for 45 min.

Row | SMILES | change in FRET ratio of GEII with amino acid [1] | Kd (LivJ) | FRET ratio change of GEII in E. coli cells (E. coli BL21(DE3) cells)
1 | C[C@H](N)C(=O)O [Alanine] | minimal |  | 
2 | N[C@@H](CCC(=O)O)C(=O)O [Glutamate] | minimal |  | 
3 | NCCCC[C@H](N)C(=O)O [lysine] | minimal |  | 
4 | NC(=O)CC[C@H](N)C(=O)O [glutamine] | minimal |  | 
5 | N[C@@H](CC(=O)O)C(=O)O [aspartic acid] | minimal |  | 
6 | CC(C)[C@H](N)C(=O)O [Valine] | minimal | 4000 nM | 
7 | CC[C@H](C)[C@H](N)C(=O)O [Isoleucine] | maximum | 900 nM | maximum FRET ratio change
8 | N[C@@H](CS)C(=O)O [Cysteine] | minimal |  | 
9 | N=C(N)NCCC[C@H](N)C(=O)O [arginine] | minimal |  | 
10 | NCC(=O)O [glycine] | minimal |  | 
11 | N[C@@H](Cc1c[nH]cn1)C(=O)O [histidine] | minimal |  | 
12 | N[C@@H](CO)C(=O)O [Serine] | minimal |  | 
13 | NC(=O)C[C@H](N)C(=O)O [asparagine] | minimal |  | 
14 | CC(C)C[C@H](N)C(=O)O [Leucine] | only mildly | 2300 nM | 
15 | CSCC[C@H](N)C(=O)O [Methionine] | minimal |  | 
